Assay results published in patent US8951563B2, “Antibiotic drug delivery and potentiation” (Technion Research & Development Foundation Limited, priority 2009, dated 2015).

What was measured:
Format in all cases: cell-based
E. coli U-16329 = assay: Antibiotic MIC / chemo-sensitization checkerboard with OAK, E. coli U-16329; conditions: for MIC: Escherichia coli, U16329, OAK: None; for FIC: antibiotic combined with C12K-7α8
Procedure: (§1) Bacteria were grown overnight in LB growth medium and diluted 10,000-fold in same medium.
(§2) Inhibition of proliferation was determined by optical density measurements (620 nm) after incubation overnight at 37° C.
(§3) Synergistic effect of the combinations was assessed by determination of the fractional inhibitory concentration (FIC) where FIC=(MIC OAK in combination with antibiotic)/(MIC OAK alone)+(MIC antibiotic in combination)/(MIC antibiotic alone). Synergy was determined for FIC 0.5.

E. coli U-16327 = assay: Antibiotic MIC / chemo-sensitization checkerboard with OAK, E. coli U-16327; conditions: for MIC: Escherichia coli, U16327, OAK: None; for FIC: antibiotic combined with C12K-7α8
Procedure: as §1, §2, §3

[1] = test system: E. coli AG100A, ΔacrAB (efflux−); conditions: sub-MIC C12K-7α8
Procedure: as §1, §3

[2] = test system: E. coli AB301, wild type (efflux+); assay: FIC index with sub-MIC OAK, E. coli AB301; conditions: sub-MIC C12K-7α8
Procedure: as §1, §3

[3] = test system: E. coli N281, ribosomal mutation; assay: FIC index with sub-MIC OAK, E. coli N281; conditions: sub-MIC C12K-7α8
Procedure: as §1, §3

E. coli 14182 = assay: Antibiotic MIC / chemo-sensitization checkerboard with OAK, E. coli 14182; conditions: for FIC: antibiotic combined with C12K-7α8; for MIC: Escherichia coli, OAK: None
Procedure: as §1, §2, §3

E. coli 14384 = assay: Antibiotic MIC / chemo-sensitization checkerboard with OAK, E. coli 14384; conditions: for FIC: antibiotic combined with C12K-7α8; for MIC: Escherichia coli
Procedure: as §1, §2, §3

[4] = test system: E. coli AG100, wild type (efflux+); conditions: sub-MIC C12K-7α8
Procedure: as §1, §3

Row | Molecule | MIC (E. coli U-16329) | MIC (E. coli U-16327) | FIC [1] | Antibiotic MIC in presence of OAK (E. coli 14182; +1.7 μg/ml C12K-7α8 (¼ MIC)) | Antibiotic MIC in presence of OAK (E. coli 14182; +3.5 μg/ml C12K-7α8 (½ MIC)) | Antibiotic MIC in presence of OAK (E. coli 14182; +[…] C12K-7α8 (⅓ MIC)) | FIC (E. coli 14182) | Antibiotic MIC in presence of OAK (E. coli 14384; +1.7 μg/ml C12K-7α8 (¼ MIC)) | Antibiotic MIC in presence of OAK (E. coli 14384; +3.5 μg/ml C12K-7α8 (½ MIC)) | Antibiotic MIC in presence of OAK (E. coli 14384; +[…] C12K-7α8 (⅓ MIC)) | FIC (E. coli 14384) | Antibiotic MIC in presence of OAK (E. coli U-16329; +3.5 μg/ml C12K-7α8 (½ MIC)) | Antibiotic MIC in presence of OAK (E. coli U-16329; +[…] C12K-7α8 (⅓ MIC)) | FIC (E. coli U-16329) | Antibiotic MIC in presence of OAK (E. coli U-16327; +3.5 μg/ml C12K-7α8 (½ MIC)) | Antibiotic MIC in presence of OAK (E. coli U-16327; +[…] C12K-7α8 (⅓ MIC)) | FIC (E. coli U-16327) | FIC [4] | MIC (E. coli 14182) | Antibiotic MIC in presence of OAK (E. coli U-16327; +1.7 μg/ml C12K-7α8 (¼ MIC)) | further results
1 | CC[C@H]1OC(=O)[C@H](C)[C@@H](O[C@H]2C[C@@](C)(OC)[C@@H](O)[C@H](C)O2)[C@H](C)[C@@H](O[C@@H]2O[C@H](C)C[C@H](N(C)C)[C@H]2O)[C@](C)(OC)C[C@@H](C)C(=O)[C@H](C)[C@@H](O)[C@]1(C)O [Clarithromycin, clarithromycin] | 128 µg/mL | 128 µg/mL | 0.75 |  |  |  |  |  |  |  |  |  |  |  |  |  |  |  |  |  | FIC [2]: 0.56; FIC [3]: 1.0
2 | CC[C@H]1OC(=O)[C@H](C)[C@@H](O[C@H]2C[C@@](C)(OC)[C@@H](O)[C@H](C)O2)[C@H](C)[C@@H](O[C@@H]2O[C@H](C)C[C@H](N(C)C)[C@H]2O)[C@](C)(O)C[C@@H](C)C(=O)[C@H](C)[C@@H](O)[C@]1(C)O [Erythromycin, erythromycin] | 256 µg/mL | 512 µg/mL | 0.86 | 32 µg/mL | 4 µg/mL | 16 µg/mL | 0.46 | 64 µg/mL | 8 µg/mL | 16 µg/mL | 0.39 | 16 µg/mL | 64 µg/mL | 0.56 | 16 µg/mL | 64 µg/mL | 0.46 | 0.46 |  |  | FIC [2]: 0.56; FIC [3]: 1.0
3 | Cc1onc(-c2ccccc2)c1C(=O)N[C@@H]1C(=O)N2[C@@H]1SC(C)(C)[C@@H]2C(=O)O [Oxacillin, oxacillin] | > 512 µg/mL | > 512 µg/mL | 0.75 | >512 µg/mL | >512 µg/mL | >512 µg/mL |  | >512 µg/mL | >512 µg/mL | >512 µg/mL |  | 512 µg/mL | >512 µg/mL |  | 512 µg/mL | >512 µg/mL |  | 0.5 | > 512 µg/mL | >512 µg/mL | MIC (E. coli 14384; OAK: None): > 512 µg/mL; Antibiotic MIC in presence of OAK (E. coli U-16329; +1.7 μg/ml C12K-7α8 (¼ MIC)): >512 µg/mL
4 | CC1(C)S[C@@H]2[C@H](NC(=O)Cc3ccccc3)C(=O)N2[C@H]1C(=O)O [Penicillin G, penicillin G] | 256 µg/mL | > 512 µg/mL | 1.0 | >512 µg/mL | >512 µg/mL | >512 µg/mL |  | >512 µg/mL | >512 µg/mL | >512 µg/mL |  | 128 to 256 µg/mL | 256 µg/mL | 1 | 512 µg/mL | >512 µg/mL |  | 0.58 | > 512 µg/mL | >512 µg/mL | MIC (E. coli 14384; OAK: None): > 512 µg/mL; Antibiotic MIC in presence of OAK (E. coli U-16329; +1.7 μg/ml C12K-7α8 (¼ MIC)): 256 µg/mL
5 | CCN1CCN(C(=O)N[C@@H](C(=O)N[C@@H]2C(=O)N3[C@@H]2SC(C)(C)[C@@H]3C(=O)O)c2ccccc2)C(=O)C1=O [Piperacillin, piperacillin] | 256 µg/mL | 256 µg/mL |  | >512 µg/mL | 64 µg/mL | >512 µg/mL | 0.63 | 256 to 512 µg/mL | 128 µg/mL | 256 to 512 µg/mL | 0.63 | 64 µg/mL | 128 µg/mL | 0.75 | 64 µg/mL | 128 to 256 µg/mL | 0.63 | 0.75 | 512 µg/mL | 256 µg/mL | MIC (E. coli 14384; OAK: None): 256 to 512 µg/mL; Antibiotic MIC in presence of OAK (E. coli U-16329; +1.7 μg/ml C12K-7α8 (¼ MIC)): 128 to 256 µg/mL
6 | CO[C@H]1/C=C/O[C@@]2(C)Oc3c(C)c(O)c4c(O)c(c(/C=N/N5CCN(C)CC5)c(O)c4c3C2=O)NC(=O)/C(C)=C\C=C\[C@H](C)[C@H](O)[C@@H](C)[C@@H](O)[C@@H](C)[C@H](OC(C)=O)[C@@H]1C [Rifampin, rifampicin] | 16 µg/mL | 8 to 16 µg/mL | 0.75 | 4 µg/mL | 0.25 µg/mL | 2 µg/mL | 0.46 | 1 µg/mL | 0.03 µg/mL | 0.06 to 0.13 µg/mL | 0.31 | 1 µg/mL | 2 µg/mL | 0.46 | 0.25 µg/mL | 1 µg/mL | 0.38 | 0.46 | 16 µg/mL | 2 µg/mL | MIC (E. coli 14384; OAK: None): 8 µg/mL; Antibiotic MIC in presence of OAK (E. coli U-16329; +1.7 μg/ml C12K-7α8 (¼ MIC)): 4 µg/mL
7 | gentamicin [Gentamycin] |  |  | 1.0 |  | 64 to 128 µg/mL |  | 1 | 4 µg/mL | 2 µg/mL | 2 to 4 µg/mL | 1 |  |  |  | 1 to 2 µg/mL | 2 µg/mL | 0.75 | 1.0 |  | 4 µg/mL | Antibiotic MIC (E. coli 14384; OAK: None): 4 µg/mL; Antibiotic MIC (E. coli U-16327; OAK: None): 4 µg/mL
